Several values for one entry are separate records, joined by “and”; a condition that tells them apart may be missing. Equal entries are not always repeated.
Test system: 521955-158-R2-J5-PDC complex spheroid growth, % test/control
Assay: Anticancer human tumor 521955-158-R2-J5-PDC patient-derived pancreatic carcinoma cell line growth inhibition [Asc]
Conditions: for viability, T/C: stronger effect = lower value
Description: Multicellular complex tumor spheroid response to apoptosis pathway targeting inhibitors Alrizomadlin, Pelcitoclax, and Dasminapant in combination with a variety of drugs and investigational agents in selected tumor cell lines
The MDM2 inhibitor alrizomadlin, the Bcl-2/Bcl-xL inhibitor pelcitoclax, and the IAPs inhibitor dasminapant were evaluated both individually and in combination with standard of care and investigational anticancer small molecules within a complex spheroid model of solid tumors. . Complex spheroids include a stromal component modeled by human endothelial cells (HUVEC) and fibroblasts modeled by human mesenchymal stem cells (MSCs). The concentration ranges selected for each drug and investigational agent were based upon clinically achievable concentrations if the clinical Cmax of the agent was known.
Compounds. The drugs and investigational agents: alrizomadlin (APG-115; NSC831270), pelcitoclax (APG-1252; NSC835773), dasminapant (APG-1387;NSC834197), TAK-243 (NSC785004), copanlisib (NSC809693), olaparib (NSC753686), talazoparib (NSC767125), cobimetinib (NSC 768068), eltanexor (KPT-8602, NSC 794443), abemaciclib (NSC 768073), sotorasib (NSC818433), adagrasib (NSC 831453), MRTX-1133 (NSC 836407), Iadademestat (ORY1001, NSC 806812), and RMC-4630 (NSC839698), were obtained from the NCI Developmental Therapeutics Program Chemical Repository. The FDA-approved anticancer drug set is available from the Developmental Therapeutics Program at https://dtp.cancer.gov/organization/dscb/obtaining/available plates.htm. […] The stock solutions were prepared in dimethyl sulfoxide (DMSO, Sigma-Aldrich, St. Louis, MO, cat. D2650) at 800-fold the tested concentration and stored at -70 degrees C prior to their use. All drugs and investigational agents were tested over a range starting from a high concentration at or near the clinical Cmax and decreasing in half-log increments. If the clinical Cmax for an agent had not been determined, the highest concentration tested was 10 microM.
The patient-derived cancer (PDC) cell lines include five colon adenocarcinomas: 186277-243-T-J2-PDC, 616215-338-R-J1-PDC, 439559-082-T-J2-PDC, 463943-066-T-J2-PDC, and 519858-162-T-J1-PDC; three pancreatic carcinomas: 323965-272-R-J2-PDC, 521955-158-R6-J3-PDC, and 521955-158-R2-J5-PDC; two uterine sarcomas: 327498-152-R-J2-PDC and 993429-296-R-J1-PDC; two rhabdomyosarcomas: 755483-174-R-J1-PDC and 772245-204-R-J1-PDC; two soft tissue sarcomas: 126254-015-R-J1-PDC and 494315-158-R-J1-PDC; two malignant fibrous histiocytomas: 317291-083-R-J1-PDC and 596521-263-R-J1-PDC; two breast carcinomas: 171881-019-R-J1-PDC and 885512-296-R-J2-PDC; and one ovarian carcinoma: 6556581-035-R-J-PDC were obtained from the NCI PDMR, (https://pdmr.cancer.gov). The established cell lines HSSY-2 synovial sarcoma (RRID:CVCL 8719), SYO-1 synovial sarcoma (RRID:CVCL_7146), MPNST malignant peripheral neural sheath tumor were obtained from the Sloan Kettering Institute. The following established cell lines were purchased from the American Type Culture Collection (ATCC, Manassas, VA), Sor the received from the NCI repository:, PANC-1 pancreatic carcinoma (CRL-1469, RRID:CVCL_0480), OVCAR-5 ovarian carcinoma (RRID:CVCL_1628), OVCAR-8 ovarian carcinoma (RRID:CVCL_1629), , MCF-7 breast carcinoma (CRL-12584, RRID:CVCL_0031), MDA-MB-231 breast carcinoma (CRL-12532, RRID:CVCL_0062), NCI-H1876 small cell lung carcinoma (CRL-5902, RRID:CVCL_1503), NCI-H510A small cell lung carcinoma (HTB-184, RRID:CVCL_1565), NCI-H1417 (CRL-5869, RRID:CVCL_1469), and NCI-H196 small cell lung carcinoma (CRL-5823, RRID:CVCL_1509). Dr. Peter Houghton (Greehey Children's Cancer Research Institute, University of Texas Health Science Center, San Antonio, TX) provided Rh-18 rhabdomyosarcoma (RRID:CVCL_1659). Pooled donor human umbilical vein endothelial cells (HUVEC, Lonza, cat. CC-2519) and human mesenchymal stem cells (hMSC, Lonza, cat. PT-2501) were purchased from Lonza (Walkersville, MD).
Cell Culture. […]
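Also: spheroids exposed to agents for 7 days before readout.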
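For viability, T/C in this document: 100% = DMSO vehicle control viability.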

Q: Which IC50 (curve of first compound, second compound 0.03 µM) does the source give for `C=CC(=O)N1CCN(c2nc(=O)n(-c3c(C)ccnc3C(C)C)c3nc(-c4c(O)cccc4F)c(F)cc23)C(C)C1` (configuration not stated) + CCN1C(C(=O)NC23CCC(C(=O)O)(CC2)CC3)C(c2cccc(Cl)c2F)C2(C(=O)Nc3cc(Cl)ccc32)C12CCCCC2 here?
A: > 10 µM

Q: What about the IC50 (curve of first compound, second compound 0.0949 µM) of the same molecule?
A: > 10 µM

Q: What about the IC50 (curve of first compound, second compound 0.3 µM) of the same molecule?
A: > 10 µM

Q: And the IC50 (curve of first compound, second compound 0.949 µM)?
A: > 10 µM

Q: What about the IC50 (curve of first compound, second compound 3 µM) of the same molecule?
A: > 10 µM

Q: And the viability, T/C (second compound 0.03 µM, first compound 0.0316 µM)?
A: 75.2%

Q: What about the viability, T/C (second compound 0.03 µM, first compound 0.1 µM) of the same molecule?
A: 67.4%

Q: What about the viability, T/C (second compound 0.03 µM, first compound 0.316 µM) of the same molecule?
A: 92.5%

Q: What about the viability, T/C (second compound 0.03 µM, first compound 1 µM) of the same molecule?
A: 113%

Q: And the viability, T/C (second compound 0.03 µM, first compound 3.16 µM)?
A: 127%

Q: And the viability, T/C (second compound 0.03 µM, first compound 10 µM)?
A: 98.3%

Q: And the viability, T/C (second compound 0.0949 µM, first compound 0.0316 µM)?
A: 112%

Q: And the viability, T/C (second compound 0.0949 µM, first compound 0.1 µM)?
A: 107%

Q: What about the viability, T/C (second compound 0.0949 µM, first compound 0.316 µM) of the same molecule?
A: 113%

Q: What about the viability, T/C (second compound 0.0949 µM, first compound 1 µM) of the same molecule?
A: 116%

Q: And the viability, T/C (second compound 0.0949 µM, first compound 3.16 µM)?
A: 114%

Q: And the viability, T/C (second compound 0.0949 µM, first compound 10 µM)?
A: 105%

Q: And the viability, T/C (second compound 0.3 µM, first compound 0.0316 µM)?
A: 76.2%

Q: What about the viability, T/C (second compound 0.3 µM, first compound 0.1 µM) of the same molecule?
A: 110%

Q: And the viability, T/C (second compound 0.3 µM, first compound 0.316 µM)?
A: 111%

Q: What about the viability, T/C (second compound 0.3 µM, first compound 1 µM) of the same molecule?
A: 122%

Q: And the viability, T/C (second compound 0.3 µM, first compound 3.16 µM)?
A: 130%

Q: What about the viability, T/C (second compound 0.3 µM, first compound 10 µM) of the same molecule?
A: 91.2%

Q: And the viability, T/C (second compound 0.949 µM, first compound 0.0316 µM)?
A: 107%

Q: And the viability, T/C (second compound 0.949 µM, first compound 0.1 µM)?
A: 110%

Q: And the viability, T/C (second compound 0.949 µM, first compound 0.316 µM)?
A: 140%

Q: And the viability, T/C (second compound 0.949 µM, first compound 1 µM)?
A: 130%

Q: What about the viability, T/C (second compound 0.949 µM, first compound 3.16 µM) of the same molecule?
A: 130%

Q: What about the viability, T/C (second compound 0.949 µM, first compound 10 µM) of the same molecule?
A: 90.2%

Q: What about the viability, T/C (second compound 3 µM, first compound 0.0316 µM) of the same molecule?
A: 128%

Q: What about the viability, T/C (second compound 3 µM, first compound 0.1 µM) of the same molecule?
A: 135%

Q: And the viability, T/C (second compound 3 µM, first compound 0.316 µM)?
A: 123%

Q: And the viability, T/C (second compound 3 µM, first compound 1 µM)?
A: 141%

Q: And the viability, T/C (second compound 3 µM, first compound 3.16 µM)?
A: 120%

Q: And the viability, T/C (second compound 3 µM, first compound 10 µM)?
A: 112%

Q: Which IC50 (curve of first compound, second compound 0.1 µM) does the source give for `C=C(F)C(=O)N1CCN(c2nc(OCC3CCCN3C)nc3c2CCN(c2cccc4cccc(Cl)c24)C3)CC1CC#N` (configuration not stated) + Cc1c(S(C)(=O)=O)c(-c2cc(F)cc(N3CCN(c4ccc(NS(=O)(=O)c5ccc(NC(CCN6CCC(C(=O)OCCCP(=O)(O)O)CC6)CSc6ccccc6)c(S(=O)(=O)C(F)(F)F)c5)cc4)CC3)c2)c(-c2ccc(Cl)cc2)n1C(C)C here?
A: 4.85 µM

Q: And the IC50 (curve of first compound, second compound 0.316 µM)?
A: 4.94 µM

Q: What about the IC50 (curve of first compound, second compound 1 µM) of the same molecule?
A: 5.24 µM

Q: And the IC50 (curve of first compound, second compound 3.16 µM)?
A: 5.01 µM

Q: And the IC50 (curve of first compound, second compound 10 µM)?
A: 6.66 µM

Q: What about the viability, T/C (second compound 0.1 µM, first compound 0.0316 µM) of the same molecule?
A: 64.6%

Q: What about the viability, T/C (second compound 0.1 µM, first compound 0.1 µM) of the same molecule?
A: 69.9%

Q: And the viability, T/C (second compound 0.1 µM, first compound 0.316 µM)?
A: 55.4%

Q: What about the viability, T/C (second compound 0.1 µM, first compound 1 µM) of the same molecule?
A: 105%

Q: What about the viability, T/C (second compound 0.1 µM, first compound 3.16 µM) of the same molecule?
A: 101%

Q: And the viability, T/C (second compound 0.1 µM, first compound 10 µM)?
A: 0.26%

Q: What about the viability, T/C (second compound 0.316 µM, first compound 0.0316 µM) of the same molecule?
A: 69%

Q: What about the viability, T/C (second compound 0.316 µM, first compound 0.1 µM) of the same molecule?
A: 76.6%

Q: And the viability, T/C (second compound 0.316 µM, first compound 0.316 µM)?
A: 81.7%

Q: What about the viability, T/C (second compound 0.316 µM, first compound 1 µM) of the same molecule?
A: 84.3%

Q: And the viability, T/C (second compound 0.316 µM, first compound 3.16 µM)?
A: 95.5%

Q: What about the viability, T/C (second compound 0.316 µM, first compound 10 µM) of the same molecule?
A: 0.21%

Q: What about the viability, T/C (second compound 1 µM, first compound 0.0316 µM) of the same molecule?
A: 105%

Q: What about the viability, T/C (second compound 1 µM, first compound 0.1 µM) of the same molecule?
A: 82.9%

Q: What about the viability, T/C (second compound 1 µM, first compound 0.316 µM) of the same molecule?
A: 69.2%

Q: And the viability, T/C (second compound 1 µM, first compound 1 µM)?
A: 80.8%

Q: What about the viability, T/C (second compound 1 µM, first compound 3.16 µM) of the same molecule?
A: 106%

Q: And the viability, T/C (second compound 1 µM, first compound 10 µM)?
A: 0.21%

Q: And the viability, T/C (second compound 3.16 µM, first compound 0.0316 µM)?
A: 62.4%

Q: And the viability, T/C (second compound 3.16 µM, first compound 0.1 µM)?
A: 80.9%

Q: And the viability, T/C (second compound 3.16 µM, first compound 0.316 µM)?
A: 69.5%

Q: And the viability, T/C (second compound 3.16 µM, first compound 1 µM)?
A: 104%

Q: What about the viability, T/C (second compound 3.16 µM, first compound 3.16 µM) of the same molecule?
A: 99.2%

Q: What about the viability, T/C (second compound 3.16 µM, first compound 10 µM) of the same molecule?
A: 0.23%

Q: What about the viability, T/C (second compound 10 µM, first compound 0.0316 µM) of the same molecule?
A: 190%

Q: And the viability, T/C (second compound 10 µM, first compound 0.1 µM)?
A: 168%

Q: And the viability, T/C (second compound 10 µM, first compound 0.316 µM)?
A: 195%

Q: And the viability, T/C (second compound 10 µM, first compound 1 µM)?
A: 188%

Q: What about the viability, T/C (second compound 10 µM, first compound 3.16 µM) of the same molecule?
A: 138%

Q: What about the viability, T/C (second compound 10 µM, first compound 10 µM) of the same molecule?
A: 2.12%

Q: With `COc1c(OCCCN2CCOCC2)ccc2c3n(c(=NC(=O)c4cnc(N)nc4)nc12)CCN3` as the molecule, how does the viability, T/C (compound 0.00316 µM) read?
A: 53.2% and 58.9% and 68.7%

Q: What about the viability, T/C (compound 0.01 µM) of the same molecule?
A: 51.9% and 45.7% and 44%

Q: What about the viability, T/C (compound 0.0316 µM) of the same molecule?
A: 40.8% and 38.2% and 34.3%

Q: What about the viability, T/C (compound 0.1 µM) of the same molecule?
A: 30.1% and 31.6% and 29.1%

Q: What about the viability, T/C (compound 0.316 µM) of the same molecule?
A: 18.9% and 20% and 19.9%

Q: What about the viability, T/C (compound 1 µM) of the same molecule?
A: 15.3% and 16.1% and 14.2%

Q: What about the IC50 (curve of compound) of the same molecule?
A: 0.0107 µM and 0.00752 µM and 0.00861 µM

From PubChem BioAssay AID1963430 (Molecular Pharmacology Branch, DTP, NCI, 2024)
